“And” between values parts separate entries of the source, which are not always exact repeats. Identical values can stand only once. Counter-ions that a name gives are not always drawn. Like-named read-outs stand apart in the source and are kept apart here.
Key:
[1] = Pharmacokinetic study in mice (plasma and brain), with estimated free drug concentrations; format: in vivo, mouse; details: for AUC(0-inf) / AUC(0-t) / Cmax / concentration at 0.25 h / concentration at 0.5 h / concentration at 1 h / concentration at 2 h: male, C57BL/6, mouse, 10 mg/kg; for AUC(0-inf) / AUC(0-t) / Cmax / concentration at 0.25 h / concentration at 0.5 h / concentration at 1 h / concentration at 2 h / Tmax / half-life / Vd/F: sc; for concentration at 0.25 h / concentration at 0.5 h / concentration at 1 h / concentration at 2 h: mice, 10 mg/kg s.c., individual animals; for Tmax / half-life / Vd/F: mouse; for half-life: read-out: T1/2z (converted); for Vd/F: read-out: VZ/F
[2] = target: T1, hKOR (Homo sapiens, UniProt P41145); test: Nanobody Nb33 sensor recruitment BRET assay; format: cell-based
T1 construct: expressed in transfected cells; host or cells: HEK-293T, transient (PEI)
T1 sequence (P41145 whole entry): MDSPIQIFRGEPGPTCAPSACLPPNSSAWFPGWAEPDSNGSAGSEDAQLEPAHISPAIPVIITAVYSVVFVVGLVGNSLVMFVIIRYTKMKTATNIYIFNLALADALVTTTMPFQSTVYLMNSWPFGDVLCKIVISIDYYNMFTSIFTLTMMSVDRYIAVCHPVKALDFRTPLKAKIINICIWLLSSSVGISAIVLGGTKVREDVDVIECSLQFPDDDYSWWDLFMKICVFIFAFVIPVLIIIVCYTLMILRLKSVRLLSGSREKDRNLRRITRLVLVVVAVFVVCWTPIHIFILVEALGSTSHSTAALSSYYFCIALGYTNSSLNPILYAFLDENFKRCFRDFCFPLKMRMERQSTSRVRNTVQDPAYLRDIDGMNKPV

[3] = target: T1, hKOR; test: G protein activation BRET assay; format: cell-based; details: for response, Fig. S5b concentration-response point (replicates): Log [Drug]
[4] = Noribogaine clinical dose escalation data (plasma concentration, QT); format: in vivo; details: from reported clinical total plasma concentrations and own human plasma protein binding
[5] = 180 mg oral dose; cited from earlier work
[6] = target: rat NMDA receptor; test: rat NMDA radioligand displacement ([3H]MK-801); format: binding
[7] = target: h5-HT2A (Homo sapiens, UniProt P28223); test: IP1 functional assay, agonist; format: cell-based; details: up to 10 µM
h5-HT2A, sequence (P28223 whole entry): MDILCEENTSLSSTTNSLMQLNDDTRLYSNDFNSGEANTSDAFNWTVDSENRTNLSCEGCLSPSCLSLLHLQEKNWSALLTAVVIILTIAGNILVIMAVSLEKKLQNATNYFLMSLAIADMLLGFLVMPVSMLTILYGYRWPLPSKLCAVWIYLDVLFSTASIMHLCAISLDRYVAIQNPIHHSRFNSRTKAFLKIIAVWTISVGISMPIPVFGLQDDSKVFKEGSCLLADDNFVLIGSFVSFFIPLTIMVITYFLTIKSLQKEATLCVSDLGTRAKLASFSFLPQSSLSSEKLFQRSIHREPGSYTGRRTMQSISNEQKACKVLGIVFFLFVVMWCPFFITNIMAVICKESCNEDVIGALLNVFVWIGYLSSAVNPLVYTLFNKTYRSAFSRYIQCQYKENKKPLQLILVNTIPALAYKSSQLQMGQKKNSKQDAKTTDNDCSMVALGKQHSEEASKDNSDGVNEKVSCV

[8] = target: T2, hNOP (Homo sapiens, UniProt P41146); test: human NOP (Orphanin ORL1) radioligand displacement; format: binding
T2 construct: purchased contracted research organization (eurofinsdiscoveryservices.com) item 260600
T2 sequence (P41146 whole entry): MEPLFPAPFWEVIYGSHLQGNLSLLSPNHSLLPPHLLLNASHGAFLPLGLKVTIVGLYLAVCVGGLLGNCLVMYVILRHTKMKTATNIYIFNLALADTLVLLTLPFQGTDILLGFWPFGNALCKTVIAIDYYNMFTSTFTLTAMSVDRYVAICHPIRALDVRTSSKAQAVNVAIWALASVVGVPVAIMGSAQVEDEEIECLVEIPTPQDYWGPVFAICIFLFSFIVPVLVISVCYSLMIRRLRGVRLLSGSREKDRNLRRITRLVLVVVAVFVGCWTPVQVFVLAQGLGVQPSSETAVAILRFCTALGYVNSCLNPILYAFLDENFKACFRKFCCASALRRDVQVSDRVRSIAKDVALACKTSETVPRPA

[9] = target: T3, hSERT (Homo sapiens, UniProt P31645); test: hSERT inhibition assay (APP+ fluorescence uptake); format: cell-based
T3 construct: expressed in transfected cells
T3 sequence (P31645 whole entry): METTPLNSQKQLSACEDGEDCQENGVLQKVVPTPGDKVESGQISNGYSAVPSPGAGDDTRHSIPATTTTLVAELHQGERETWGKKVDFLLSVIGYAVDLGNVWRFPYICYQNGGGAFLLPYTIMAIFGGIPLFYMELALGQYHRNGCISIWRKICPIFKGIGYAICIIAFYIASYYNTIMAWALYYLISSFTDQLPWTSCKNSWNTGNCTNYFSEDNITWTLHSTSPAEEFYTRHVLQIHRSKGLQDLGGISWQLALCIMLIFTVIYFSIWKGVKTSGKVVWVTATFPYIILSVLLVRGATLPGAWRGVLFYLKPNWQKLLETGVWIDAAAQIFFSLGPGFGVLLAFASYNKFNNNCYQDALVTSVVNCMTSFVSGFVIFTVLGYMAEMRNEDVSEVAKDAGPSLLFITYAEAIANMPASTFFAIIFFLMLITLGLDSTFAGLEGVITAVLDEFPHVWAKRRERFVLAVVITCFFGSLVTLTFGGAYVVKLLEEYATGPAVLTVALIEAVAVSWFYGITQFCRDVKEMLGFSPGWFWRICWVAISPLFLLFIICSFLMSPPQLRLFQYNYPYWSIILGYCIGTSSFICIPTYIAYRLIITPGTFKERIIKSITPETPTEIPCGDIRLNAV
Description: Stably transfected hSERT-HEK cellular cultures were maintained in Dulbecco’s Minimal Essential Medium (DMEM) with GlutaMAX (Gibco-Thermo Fisher Scientific, Waltham, MA) with the following additions: 10% (v/v) Fetal Bovine Serum (FBS, Atlanta Biologicals, Flowery Branch, GA), 100 U/mL Penicillin 10 μg/mL Streptomycin (Gibco-Thermo Fisher Scientific, Waltham, MA), and 500 μg/mL Geneticin (G418) (Sigma Aldrich, St. Louis, MO). Singly transfected cells were seeded at a density of 0.09 × 10^6 cells/well in poly-D-Lysine (Sigma Aldrich, St. Louis, MO) coated white solid-bottom 96-well plates (Greiner Bio-One, Kremsmünster, Austria). Cells were grown for 44 h in aqueous media at 37 °C under 5% CO2 atmosphere. […] A final solution of 120 μL of PBS was finally added to all corresponding wells for cell maintenance before measuring fluorescence uptake (BioTek H1MF plate reader (BioTek Instruments, Winooski, VT), APP+ excitation and emission wavelengths 436 and 500 nm). Recorded inhibitor values were first subtracted from vehicular values to quantify the respective fluorescence uptake. Data were analyzed using the dose-response-inhibitor nonlinear curve fitting model (log[inhibitor] vs response (four parameters) in Graphpad Prism 10 (Graphpad Software, La Jolla, CA).

[10] = brain, male C57BL/6 mice, s.c. 10 mg/kg
[11] = brain, male C57BL/6 mice, single s.c. 10 mg/kg
[12] = plasma, read-out: Free Plasma Concentration
[13] = plasma, read-out: Plasma Concentration (total)
[14] = plasma, male C57BL/6 mice, s.c. 10 mg/kg
[15] = plasma, male C57BL/6 mice, single s.c. 10 mg/kg

With CCC1CC2CC3c4[nH]c5ccc(O)cc5c4CCN(C2)C13 (stereo not drawn) [Noribogaine, Noribogaine hydrochloride] the AUC(0-inf) [1, 10] was 12100 ng·h/mL, the AUC(0-t) [1, 10] was 11700 ng·h/mL and the Cmax [1, 10] was 5090 ng/g. For the same molecule, the AUC(0-inf) [1, 11] was 12100 ng·h/mL, the AUC(0-t) [1, 11] was 11700 ng·h/mL and 39.4 µM·h and the Cmax [1, 11] was 17.2 µM. For the same molecule, the concentration at 0.25 h [1, 12] was 2.91 µM, the concentration at 0.25 h [1, 13] was 4.84 µM and the concentration at 0.5 h [1, 12] was 3.34 µM. The concentration at 0.5 h [1, 13] was 5.36 µM, the concentration at 1 h [1, 12] was 1.97 µM and the concentration at 1 h [1, 13] was 4.03 µM. For the same molecule, the concentration at 2 h [1, 12] was 1.28 µM, the concentration at 2 h [1, 13] was 3.43 µM and the AUC(0-inf) [1, 14] was 5230 ng·h/mL. The AUC(0-t) [1, 14] was 5220 ng·h/mL, the Cmax [1, 14] was 1980 ng/mL and the AUC(0-inf) [1, 15] was 5230 ng·h/mL. The AUC(0-t) [1, 15] was 5220 ng·h/mL and 17.6 µM·h, the Cmax [1, 15] was 1980 ng/mL and 6.68 µM and the Tmax [1, 10] was 0.5 h. For the same molecule, the half-life [1, 10] was 1.71 h, the Vd/F [1, 10] was 2.04 L/kg and the Tmax [1, 14] was 0.5 h. It also gave a half-life [1, 14] of 2.76 h, a Vd/F [1, 14] of 7.62 L/kg and a CLf [1, 14] of 31.87 mL/min/kg. For the same molecule, the “% effect at 100 µM” value [2] was < 3%, the “response, Fig. S5b concentration-response point (replicates)” value (shortened to “response … (replicates)”) ([3]; M = -4) was 63.4148 and 52.568 and 43.4303 and -3.268 and 15.5992 and -3.578 and 46.3729 and 68.2306 and 65.5059 and the “response … (replicates)” value ([3]; M = -5) was 44.129 and 7.591 and 58.3969 and -7.944 and -3.52 and -16.5221 and 8.861 and 66.0772 and 47.0286. The “response … (replicates)” value ([3]; M = -6) was 20.3519 and 3.61 and -1.914 and -21.4522 and 4.635 and -8.327 and 2.307 and 50.686 and 6.38, the “response … (replicates)” value ([3]; M = -7) was -3.613 and 22.2417 and 10.4815 and -11.7203 and -7.426 and -8.634 and -0.3969 and 6.635 and -33.8028 and the “response … (replicates)” value ([3]; M = -8) was -6.02 and -4.0285 and -3.934 and -14.0445 and 2.721 and -12.2464 and 2.029 and -16.111 and -2.683. The “response … (replicates)” value ([3]; M = -9) was 5.431 and -20.2939 and -8.392 and 0.6992 and -6.586 and -12.3198 and -2.633 and 36.0973 and 2.925, the “response … (replicates)” value ([3]; M = -10) was 4.023 and 14.614 and -14.1911 and -26.8111 and -11.2252 and 12.0579 and -0.5811 and 6.156 and 9.5717 and the “response … (replicates)” value ([3]; M = -11) was -10.3398 and -7.2943 and -10.3521 and -20.7885 and 4.252 and -10.5358 and -2.026 and -5.486 and -20.474. The Emax ([3]; normalized to Emax of U-50,488) was 46%, the “estimated free plasma noribogaine Cmax” value ([4]; 60 mg oral dose, mild QT effect) was “approximately 100 nM” and the “estimated free plasma noribogaine Cmax” value ([4]; 180 mg oral dose) was 0.3 to 0.4 µM. For the same molecule, the QT prolongation [5] was > 500 ms, the IC50 [6] was 42 µM and the “NMDA receptor radioligand displacement, concentration-response point (Fig. S3c)” value (“NMDA receptor radioligand displacement” for short) ([6]; 1.00E-04 M) was 73. The “NMDA receptor radioligand displacement” value ([6]; 1.00E-05 M) was 14, the “NMDA receptor radioligand displacement” value ([6]; 1.00E-06 M) was 5 and the “NMDA receptor radioligand displacement” value ([6]; 2.15E-05 M) was 32. The “NMDA receptor radioligand displacement” value ([6]; 4.64E-05 M) was 53, the IC50 ([6]; [3H]MK-801 displacement, n = 1) was 42.2 µM and the “agonist activity at h5-HT2R” value [7] was “No agonist activity”. For the same molecule, the “% displacement at 10 µM” value ([8]; at 10 µM, n = 1) was < 0%, the “binding affinity for nociceptin receptor (ORL-1/NOP)” value ([8]; up to 10 µM) was “No binding affinity” and the Emax [9] was 104%.

Reference: paper PMC11415492 (Nature Communications, 2024)
